Measurements from patent US10208288B2, “Differentiation of human embryonic stem cells into pancreatic endocrine cells” (Janssen Biotech, Inc., priority 2012, dated 2019).

Tested on: cells of the human embryonic stem cell line H1 differentiated to stage 6
Experiment: Phase contrast imaging of endocrine cluster formation in stage 6 cultures
Format: cell-based
Description: Cells of the human embryonic stem cell line H1 (hESC H1, passage 40) were seeded as single cells at 1×10^5 cells/cm^2 on MATRIGEL™ (1:30 dilution; BD Biosciences, NJ) coated dishes in mTeSR®1 media (StemCell Technologies, Vancouver, Canada) supplemented with 10 μM of Y27632. Forty-eight hours post seeding, cultures were washed in incomplete PBS (phosphate buffered saline without Mg or Ca). Cultures were differentiated into pancreatic endoderm/endocrine lineages as follows: • a) Stage 1 (Definitive Endoderm (DE)—3 days): Cells were cultured for one day in stage 1 media (see Example 1, above). Cells were then cultured for an additional day in MCDB-131 medium supplemented with 0.1% fatty acid-free BSA, 0.0012 g/ml sodium bicarbonate, 1× GlutaMax™, 4.5 mM D-Glucose, 100 ng/ml GDF8, and 0.1 μM MCX compound. Cells were then cultured for an additional day in MCDB-131 medium supplemented with 0.1% fatty acid-free BSA, 0.0012 g/ml sodium bicarbonate, 1× GlutaMax™, 4.5 mM D-Glucose, and 100 ng/ml GDF8, then • b) Stage 2 (Primitive gut tube—2 days): Cells were treated for two days with MCDB-131 medium supplemented with 0.1% fatty acid-free BSA; 0.0012 g/ml sodium bicarbonate; 1× GlutaMax™; 4.5 mM D-Glucose; 0.25 mM ascorbic acid (Sigma, Mo.) and 25 ng/ml FGF7 (R & D Systems, MN), then • c) Stage 3 (Foregut—2 days): Cells were treated with MCDB-131 medium supplemented with a 1:200 dilution of ITS-X (Invitrogen, Ca); 4.5 mM Glucose; 1× GlutaMax™; 0.0017 g/ml sodium bicarbonate; 2% fatty acid-free BSA; 0.25 μM SANT-1 (Sigma, Mo.); 10 ng/ml of Activin-A (R& D Systems, MN); 1 μM RA (Sigma, Mo.); 25 ng/ml FGF7; 0.25 mM ascorbic acid; 200 nM TPB (PKC activator; Catalog No. 565740; EMD Chemicals, Gibstown, N.J.); 10 μM forskolin (FSK, Sigma, Mo.), and 100 nM LDN (BMP receptor inhibitor; Catalog No. 04-0019; Stemgent, Calif.) for day 1. […]

In the case of `CCCCCCCCCCCCC/C=C/[C@@H](O)[C@@H](N)COP(=O)(O)O` [S1P, sphingosine-1-phosphate], the “time at which endocrine clusters emerged after start of stage 6” value (10 μM added for three days at stage 6, FIG. 6A, 6B) is reported as 3 days, the “formation of clusters earlier than in control cultures” value (10 μM at stage 6, vs control cultures) is reported as “about 7 days” and the “clustering of endocrine cells” value (S6 cultures, day 7, phase contrast, FIG. 4B) is reported as “clear evidence of clustering of endocrine cells”. The “appearance of endocrine clusters” value (S6 cultures, day 10, phase contrast, FIG. 4C, 4D) was “clusters were separated from each other by a thin layer of pancreatic endoderm epithelium”.
